From ChEMBL document CHEMBL1201862, “PubChem BioAssay data set” (2004)
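Dose response: 5 concentrations. Exposure: 48 h. Format: 96-well plates. Endpoint: linear interpolation; highest concentration if not reached. GI50 is the concentration that inhibits growth by half.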 Active and inactive are the calls of the source. No stated cut-off is given here; in the data, active = GI50 up to about 1.1 µM and inactive = higher.

Key:
Assay in all cases: inhibition of tumour cell growth, NCI panel, 48 h
[1] = tested on: ACHN
[2] = tested on: CAKI-1
[3] = tested on: CCRF-CEM
[4] = tested on: HCT-15
[5] = tested on: HT-29
[6] = tested on: KM12
[7] = tested on: LOX IMVI
[8] = tested on: M14
[9] = tested on: MDA-MB-231
[10] = tested on: NCI-H460
[11] = tested on: OVCAR-8
[12] = tested on: SF-268
[13] = tested on: SK-OV-3
[14] = tested on: SN12C
[15] = tested on: SNB-19
[16] = tested on: SNB-75
[17] = tested on: TK-10
[18] = tested on: UACC-62
[19] = tested on: HOP-92
[20] = tested on: SR

| SMILES | GI50 [1] | GI50 [2] | GI50 [3] | GI50 [4] | GI50 [5] | GI50 [6] | GI50 [7] | GI50 [8] | GI50 [9] | GI50 [10] | GI50 [11] | GI50 [12] | GI50 [13] | GI50 [14] | GI50 [15] | GI50 [16] | GI50 [17] | GI50 [18] | GI50 [19] | GI50 [20] |
| --- | --- | --- | --- | --- | --- | --- | --- | --- | --- | --- | --- | --- | --- | --- | --- | --- | --- | --- | --- | --- |
| Cc1ccc(C(=O)Nc2ccc(CP(=O)(O)O)cc2CP(=O)(O)O)cc1NC(=O)Nc1cc(C(=O)Nc2ccc(CP(=O)(O)O)cc2CP(=O)(O)O)ccc1C | > 100 µM (inactive) | > 100 µM (inactive) | > 100 µM (inactive) | > 100 µM | > 100 µM (inactive) | > 100 µM (inactive) | > 100 µM (inactive) | > 100 µM (inactive) | > 100 µM (inactive) | > 100 µM (inactive) | > 100 µM (inactive) | > 100 µM (inactive) | > 100 µM (inactive) | > 100 µM (inactive) | > 100 µM (inactive) | > 100 µM (inactive) | > 100 µM (inactive) | > 100 µM (inactive) |  |  |
| O=C(O)C[C@H]1CCCCC12CCOC2=O (stereo not given in full) | > 100 µM (inactive) | > 100 µM (inactive) | > 100 µM (inactive) |  | > 100 µM (inactive) | > 100 µM (inactive) | > 100 µM (inactive) | > 100 µM (inactive) |  | > 100 µM (inactive) | > 100 µM (inactive) | > 100 µM (inactive) | > 100 µM (inactive) | > 100 µM (inactive) | > 100 µM (inactive) | > 100 µM (inactive) | > 100 µM (inactive) | > 100 µM (inactive) | > 100 µM (inactive) | > 100 µM (inactive) |
| Nc1nc(O)c2nc(N)n(Cc3ccccc3)c2n1 | > 100 µM (inactive) | > 100 µM (inactive) | > 100 µM (inactive) | > 100 µM | > 100 µM (inactive) | > 100 µM (inactive) | > 100 µM (inactive) | > 100 µM (inactive) |  | > 100 µM (inactive) | > 100 µM (inactive) | > 100 µM (inactive) | > 100 µM (inactive) | > 100 µM (inactive) | > 100 µM (inactive) | > 100 µM (inactive) | > 100 µM (inactive) | > 100 µM (inactive) | > 100 µM (inactive) | > 100 µM (inactive) |
| CC(=O)Oc1cc(-c2oc3cc(OC(C)=O)c(C4OC(CO)C(O)C(O)C4O)c(OC(C)=O)c3c(=O)c2O)c(OC(C)=O)cc1O (stereo not given) | > 100 µM (inactive) | > 100 µM (inactive) | 89.9 µM (inactive) | > 100 µM | > 100 µM (inactive) | > 100 µM (inactive) | > 100 µM (inactive) | > 100 µM (inactive) | > 100 µM (inactive) | > 100 µM (inactive) | > 100 µM (inactive) |  | > 100 µM (inactive) | > 100 µM (inactive) |  | 60.4 µM (inactive) | > 100 µM (inactive) | > 100 µM (inactive) | 26.3 µM (inactive) |  |
| O=C1C2C3C=C4c5ccccc5N(c5ccccc5)C4(C2C(=O)N1c1ccccc1)C1C(=O)N(c2ccccc2)C(=O)C31 (stereo not given) | > 100 µM (inactive) | > 100 µM (inactive) | 8.81 µM (inactive) | > 100 µM | 6.56 µM (inactive) | > 100 µM (inactive) | > 100 µM (inactive) | > 100 µM (inactive) |  | 4.05 µM (inactive) | > 100 µM (inactive) | > 100 µM (inactive) | > 10 µM (inactive) | > 100 µM (inactive) | > 100 µM (inactive) | 65.8 µM (inactive) | > 100 µM (inactive) | 3.61 µM (inactive) | 2.4 µM (inactive) | 6.35 µM (inactive) |
| N/C(=N\O)N/N=C/c1cccc(F)c1 | 27.7 µM (inactive) | 27.7 µM (inactive) | 23.8 µM (inactive) | 50.9 µM | 30.4 µM (inactive) | 34.1 µM (inactive) | 26.8 µM (inactive) | 21.2 µM (inactive) |  | 26.4 µM (inactive) | 33 µM (inactive) | 21.6 µM (inactive) | 55.7 µM (inactive) | 44.2 µM (inactive) | > 100 µM (inactive) | 52.6 µM (inactive) | 66.5 µM (inactive) | 16.8 µM (inactive) | 42.9 µM (inactive) | 21.9 µM (inactive) |
